How the values were obtained:
Assay in all cases: relative viability (nuclei count vs DMSO), 5 days (fraction); higher = more cells survive
Pazopanib + OSI-027 = compound: Cc1ccc(Nc2nccc(N(C)c3ccc4c(C)n(C)nc4c3)n2)cc1S(N)(=O)=O [Pazopanib] + COc1cccc2cc(-c3nc([C@H]4CC[C@H](C(=O)O)CC4)n4ncnc(N)c34)[nH]c12 [OSI-027] (partner 0.5 µM)
Summary of the method: (§1)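 Nuclei were stained with Hoechst during a one-step fixation (final 0.05% Triton X-100, 1% formaldehyde, 1 ug/ml Hoechst) carried out 5 days after dosing, then counted on 4× images. The cells, lung cancer lines in 1536-well plates, had been dosed by pin tool the day after seeding with one drug alone or a fixed anchor-drug dose plus five library-drug doses (not always all listed) in √10 steps. Relative viability is the nuclei count in treated wells divided by that in vehicle wells, and each value is the median of duplicate plates.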

Pazopanib + Decitabine = compound: Cc1ccc(Nc2nccc(N(C)c3ccc4c(C)n(C)nc4c3)n2)cc1S(N)(=O)=O [Pazopanib] + Nc1ncn([C@H]2C[C@H](O)[C@@H](CO)O2)c(=O)n1 [Decitabine] (partner 2 µM)
Summary of the method: as §1

Pazopanib + Olaparib = compound: Cc1ccc(Nc2nccc(N(C)c3ccc4c(C)n(C)nc4c3)n2)cc1S(N)(=O)=O [Pazopanib] + O=C(c1cc(Cc2n[nH]c(=O)c3ccccc23)ccc1F)N1CCN(C(=O)C2CC2)CC1 [Olaparib] (partner 8 µM)
Summary of the method: as §1

Ponatinib + Pemetrexed = compound: Cc1ccc(C(=O)Nc2ccc(CN3CCN(C)CC3)c(C(F)(F)F)c2)cc1C#Cc1cnc2cccnn12 [Ponatinib] + Nc1nc2[nH]cc(CCc3ccc(C(=O)N[C@@H](CCC(=O)O)C(=O)O)cc3)c2c(=O)[nH]1 [Pemetrexed] (partner 0.2 µM)
Summary of the method: as §1

Cell Line	relative viability (Pazopanib + OSI-027; first compound 0.01 µM)	relative viability (Pazopanib + OSI-027; first compound 0.03162 µM)	relative viability (Pazopanib + OSI-027; first compound 0.1 µM)	relative viability (Pazopanib + OSI-027; first compound 0.3162 µM)	relative viability (Pazopanib + OSI-027; first compound 1 µM)	relative viability (Pazopanib + Decitabine; first compound 0.01 µM)	relative viability (Pazopanib + Decitabine; first compound 0.03162 µM)	relative viability (Pazopanib + Decitabine; first compound 0.1 µM)	relative viability (Pazopanib + Decitabine; first compound 0.3162 µM)	relative viability (Pazopanib + Decitabine; first compound 1 µM)	relative viability (Pazopanib + Olaparib; first compound 0.01 µM)	relative viability (Pazopanib + Olaparib; first compound 0.03162 µM)	relative viability (Pazopanib + Olaparib; first compound 0.1 µM)	relative viability (Pazopanib + Olaparib; first compound 0.3162 µM)	relative viability (Pazopanib + Olaparib; first compound 1 µM)	relative viability (Ponatinib + Pemetrexed; first compound 0.002 µM)	relative viability (Ponatinib + Pemetrexed; first compound 0.006325 µM)	relative viability (Ponatinib + Pemetrexed; first compound 0.06325 µM)	relative viability (Ponatinib + Pemetrexed; first compound 0.2 µM)
SW 1573	0.566	0.728	0.684	0.715	0.765	0.465	0.52	0.607	0.528	0.7	0.471	0.511	0.52	0.531	0.517	0.841	0.802	0.835	0.838
ChaGo-K-1	0.528	0.504	0.541	0.498	0.581	0.541	0.482	0.516	0.528	0.535	0.473	0.447	0.413	0.413	0.357	0.264	0.258	0.262	0.246
COR-L 105	0.636	0.665	0.635	0.75	0.857	0.746	0.576	0.737	0.677	0.719	0.699	0.649	0.667	0.584	0.745	1.09	1.07	1.25	1.04
NCI-H1975	0.677	0.723	0.861	0.735	0.734	0.374	0.373	0.394	0.401	0.374	0.76	0.829	0.775	0.785	0.756	0.276	0.293	0.297	0.257
NCI-H1993		0.603	0.599	0.479	0.461		0.493	0.607	0.678	0.59		1.03	1.21	1.09	1.15	0.691	0.62	0.573	0.678
SK-LU-1	0.452	0.345	0.385	0.395	0.352	0.568	0.611	0.633	0.632	0.665	0.392	0.483	0.441	0.525	0.55	0.978	1.07	0.958	0.84
NCI-H23	0.559	0.617	0.648	0.643	0.637	0.308	0.309	0.341	0.376	0.335	0.315	0.343	0.297	0.321	0.36	0.616	0.766	0.819	0.666
HCC-366	0.807	0.992	0.823	0.975	0.945	0.384	0.302	0.378	0.326	0.473	0.31	0.357	0.396	0.396	0.35	0.128	0.154	0.191	0.201
EMC-BAC-2		0.424	0.394	0.404	0.399		1.01	0.999	0.974	1.16		0.476	0.457	0.43	0.43	0.436	0.404	0.468	0.395
NCI-H3122	0.985	0.958	1.02	1.05	1.26	0.516	0.407	0.474	0.449	0.459	0.7	0.572	0.607	0.636	0.599	0.208	0.194	0.214	0.194
SK-MES-1	0.643	0.629	0.654	0.585	0.578	0.338	0.359	0.369	0.416	0.55	0.659	0.684	0.76	0.75	0.685	0.89	0.934	1.16	0.948
NCI-H2170	0.728	0.695	0.719	0.703	0.655	0.47	0.467	0.453	0.449	0.428	0.669	0.561	0.693	0.547	0.56	0.238	0.263	0.281	0.331
NCI-H1648	0.24	0.219	0.242	0.271	0.235			0.528	0.568	0.46			0.61	0.515	0.419	0.574	0.667	0.63	0.618
EPLC-272H		0.253	0.337	0.336	0.277		0.336	0.353	0.337	0.369	0.87	0.792	1.06	0.944	0.845	0.397	0.359	0.388	0.408
NCI-H1915	0.61	0.659	0.626	0.588	0.64	0.244	0.264	0.263	0.261	0.291	0.257	0.241	0.275	0.229	0.227	0.459	0.423	0.529	0.423
NCI-H647	0.594	0.688	0.723	0.902	0.739	0.402	0.408	0.344	0.487	0.295	0.717	0.714	0.803	0.486	0.474	0.203	0.193	0.17	0.203
NCI-H441	0.6	0.597	0.649	0.619	0.454	0.239	0.272	0.229	0.257	0.252	0.558	0.519	0.511	0.429	0.611	0.266	0.256	0.297	0.215
